Results on three molecules are retold here after patent EP4582080A1, “DISPENSER FOR MUCOSAL ADMINISTRATION COMPRISING 2-DEOXY-GLUCOSE OR ANALOGUES THEREOF” (G.ST Antivirals GmbH, priority 2024, dated 2025).

Data set [1] is described as follows: Mucus penetration through mucus on a semipermeable membrane, measured via mass spectrometry. In kind it is in vitro ADME. The settings on record: 35mg/mL in citrate buffer, pH5 versus pH7, 30min at 37 °C (Fig. 6). How it is done: The present invention is further illustrated by the following figures and examples, without being restricted thereto. • Fig. 1: Imine formation of 2-deoxy-D-glucose (2-DG) with L-lysine in citric acid•Na2HPO4 buffer (pH 7) at different 2-DG concentrations incubated at 37 °C. Indicated values are means (n=4) ± SEM. • Fig. 2: Imine formation of 2-deoxy-D-glucose (2-DG, 35mg/mL) with L-lysine (O.lmg/mL) in citric acid•Na2HPO4 buffer at different pH values incubated at 37 °C. Indicated values are means (n=4) ± SEM. • Fig. 3: Imine formation of 2-deoxy-D-glucose (2-DG, 35mg/mL) with L-lysine (O.lmg/mL) in citrate buffer at different pH values incubated at 37 °C. Indicated values are means (n=4) ± SEM. • Fig. 4: Imine formation of 2-deoxy-D-glucose (2-DG, 35mg/mL) with L-lysine (O.lmg/mL) in tartrate buffer at different pH values incubated at 37 °C. Indicated values are means (n=4) ± SEM. • Fig. 5: Imine formation of 2-deoxy-D-glucose (2-DG, 35mg/mL) with L-lysine (O.lmg/mL) in maleate buffer at different pH values incubated at 37 °C. Indicated values are means (n=4) ± SEM. • Fig. 6: Mucus penetration of 2-deoxy-D-glucose (2-DG), 2-fluoro-2-deoxy-D-glucose (2-FDG) or 2-fluoro-2-deoxy-D-mannose (2-FDM) (all 35mg/mL) in citrate buffer at pH5 and pH7, incubated for 30min at 37 °C.
We measured the mucus penetration potential in the following manner: After applying mucus onto a semipermeable membrane, formulations containing 2-DG or analogues at indicated pH were applied onto the mucus. Penetrated 2-DG or analogues was measured via mass spectrometry.

Data set [2] is described as follows: Imine (Schiff's base) formation of 2-DG with L-lysine in buffer. In kind it is physicochemical. How it is done:
The present invention is further illustrated by the following figures and examples, without being restricted thereto. • Fig. 1: Imine formation of 2-deoxy-D-glucose (2-DG) with L-lysine in citric acid•Na2HPO4 buffer (pH 7) at different 2-DG concentrations incubated at 37 °C. Indicated values are means (n=4) ± SEM. • Fig. 2: Imine formation of 2-deoxy-D-glucose (2-DG, 35mg/mL) with L-lysine (O.lmg/mL) in citric acid•Na2HPO4 buffer at different pH values incubated at 37 °C. Indicated values are means (n=4) ± SEM. • Fig. 3: Imine formation of 2-deoxy-D-glucose (2-DG, 35mg/mL) with L-lysine (O.lmg/mL) in citrate buffer at different pH values incubated at 37 °C. Indicated values are means (n=4) ± SEM. • Fig. 4: Imine formation of 2-deoxy-D-glucose (2-DG, 35mg/mL) with L-lysine (O.lmg/mL) in tartrate buffer at different pH values incubated at 37 °C. Indicated values are means (n=4) ± SEM. • Fig. 5: Imine formation of 2-deoxy-D-glucose (2-DG, 35mg/mL) with L-lysine (O.lmg/mL) in maleate buffer at different pH values incubated at 37 °C. Indicated values are means (n=4) ± SEM. • Fig. 6: Mucus penetration of 2-deoxy-D-glucose (2-DG), 2-fluoro-2-deoxy-D-glucose (2-FDG) or 2-fluoro-2-deoxy-D-mannose (2-FDM) (all 35mg/mL) in citrate buffer at pH5 and pH7, incubated for 30min at 37 °C. […]

Structures are written as SMILES.

As for `O=C[C@H](F)[C@@H](O)[C@H](O)[C@H](O)CO` [2-FDG, 2-fluoro-2-deoxy-D-glucose], the Mucus penetration entry in data set [1] is on record as “increased mucus penetration properties”.
Turning to `O=C[C@@H](F)[C@@H](O)[C@H](O)[C@H](O)CO` [2-FDM, 2-fluoro-2-deoxy-D-mannose], the Mucus penetration result in data set [1] was “increased mucus penetration properties”.
Turning to `O=CC[C@@H](O)[C@H](O)[C@H](O)CO` [2-DG, 2-deoxy-D-glucose], the Mucus penetration entry in data set [1] is reported as “increased mucus penetration properties”. The Imine formation result in data set [2] (2-DG 35mg/mL, L-lysine (O.lmg/mL), acidic pH (pH < 7.0) in citric acid•Na2HPO4, citrate, tartrate, maleate buffers, 37 °C (Fig. 2-5)) is recorded as “distinct lowering in the formation of Schiff's bases”; in data set [2] (with L-lysine in citric acid•Na2HPO4 buffer (pH 7), different 2-DG concentrations, 37 °C (Fig. 1)), “lead to the formation of Schiff's bases (imines)”.
